Measurements taken from patent US20140357688A1, “METHOD FOR INHIBITING EZH2 EXPRESSION IN BREAST CANCER CELLS” (Yung Shin Pharm. Ind. Co., Ltd., priority 2013, published 2014).

Key:
Format in all cases: cell-based, human
ERK = assay: Western blot of ERK phosphorylation in MDA-MB-468 cells; details: 3 μM YC-1; beginning at 2 h, maximal at 6 h
Experimental: (A) Cells were pretreated with KT5720 (3 μM), KT5823 (3 μM), NS2028 (30 μM), or ODQ (30 μM) and then stimulated with YC-1 (3 μM) for 6 h. Cells were collected for measurement of protein expression (left) or cell viability (middle). After 3 days of PKA knockdown, cells were induced with 3 μM YC-1 for 4 h. Cells were harvested and analyzed using western blotting (right). The levels of protein expression were quantitated and shown under blots. […] Cells were collected and analyzed protein expression (left) and cells viability (middle). p44/42 MAPK knockdown cells were treated with 3 μM YC-1 for 4 h and then detected protein expression (left). (C) Cells were treated with 3 μM YC-1 for indicated time. Cells were harvested for detection of protein phosphorylated activation. […] Six hours later, cells were harvested for EZH2 ubiquitination assay. (E) Cells were induced by 3 μM YC-1 for 6 h in the presence of PD98059 or KT5720. Cells were collected for the determination of ERK phosphorylation. Cells were lysed in PBS containing proteinase inhibitor and phosphatase inhibitors and sonication. Protein concentration was measured using the Bio-Rad protein assay kit (Bio-Rad Laboratories, Hercules, Calif., USA). […] The band intensities were analyzed and quantified by the Multi Gauge software (Fuji Photo Film).

H3K27me3 = assay: Western blot of H3K27me3 in MDA-MB-468 cells
Experimental: (A)(B) Cells were treated with indicated concentration of YC-1 for 24 h (A) or 3 μM of YC-1 for indicated time (B). Cells were harvested and performed with western blotting analysis. […] The levels of protein expression were quantitated and shown under blots. (C) Cells were transfected with EZH2 shRNA for 0, 1, 2, 3, and 4 days and collected for determination of cell viability (left) and protein expression (right). (D)(E) After 4 days of EZH2 knockdown, cells were incubated with 3 μM YC-1 for 4 h and detected cell viability (D) and protein contents (E). (F) Tumor specimens were isolated and protein was extracted for western blot analysis.
Cells were lysed in PBS containing proteinase inhibitor and phosphatase inhibitors and sonication. Protein concentration was measured using the Bio-Rad protein assay kit (Bio-Rad Laboratories, Hercules, Calif., USA). Lysate protein was separated by electrophoresis of SDS-PAGE and transferred to Immobilon P membrane (EMD Millipore). The membranes were incubated with appropriate primary antibodies and horseradish peroxidase-conjugated secondary antibodies (EMD Millipore). The signaling was visualized using Chemiluminescence substrate kit (EMD Millipore) and collected by the Luminesence image analyzer, LAS4000 (Fuji Photo Film Co., Tokyo, Japan). The band intensities were analyzed and quantified by the Multi Gauge software (Fuji Photo Film).

Hs578T = assay: MTT cell viability assay
Experimental: (§1) Human breast cancer cells, MDA-MB-468, MDA-MB-157, MDA-MB-231, MDA-MB-453, and Hs578T, and immortalized mammary epithelial cell lines, 184A1 and MCF-10A, were obtained from American Type Culture Collection (Manassas, Va., USA). MDA-MB-468, MDA-MB-157, MDA-MB-231, and MDA-MB-453 were cultured in DMEM/F12 medium supplemented with 10% FBS, 100 U/ml penicillin, and 100 μg/ml streptomycin. Hs578T was cultured in RPMI 1640 medium containing 10% FBS, 2 mM L-glutamine, 100 U/ml penicillin, and 100 μg/ml streptomycin. 184A1 and MCF-10A were cultured in DMEM/F12 medium supplemented with 5% horse serum, 0.5 μg/ml hydrocortisone, 10 μg/ml insulin, 20 ng/ml epidermal growth factor, 0.1 μg/ml cholera enterotoxin, 2 mM L-glutamine, 100 U/ml penicillin, and 100 μg/ml streptomycin. All cells were maintained in a humidified incubator containing 5% CO2. For hypoxia treatment, cells were incubated in a chamber flushed with 1% 02, 5% CO2, and 94% N2 at 37° C.
(§2) Cell viability was measured by 3-(4,5-Dimethyl-2-thiazolyl)2,5-diphenyl-2H-tetrazolium bromide (MTT) assay.

MDA-MB-231 = assay: MTT cell viability assay; details: triple negative breast cancer cell line MDA-MB-231
Experimental: as §1, §2

MDA-MB-453 = assay: MTT cell viability assay
Experimental: as §1, §2

MDA-MB-157 = assay: MTT cell viability assay
Experimental: as §1, §2

184A1 = assay: MTT cell viability assay; details: normal mammary epithelial cells 184A1
Experimental: (§3) (A) Cells were treated with indicated concentration of YC-1 for 6, 24, and 48 h. Cell viability was determined by MTT method. (B) MDA-MB-468 cells were treated with 3 μM YC-1 for 0, 6, and 12 h, and then stained with fluorescence diacetate (FDA) and propidium iodide (PI). Cell morphology was assessed by fluorescence microscopy with magnification ×20 (upper 3 rows) or ×40 (lowest row). (C) MDA-MB-468 cells were treated with 3 μM YC-1 for 24 h, cells were lysed and subjected to western blot analysis described in Materials and Methods. β-actin is a loading control. Blots were representative of results from three independent experiments. (D) Cells were treated with vehicle (DMSO, as control) or 3 μM YC-1 for 6 h. The cell cycles were analyzed by flow cytometry. (E) Cells were treated with indicated concentration of YC-1 and then performed with clonogenic assay.
as §1, §2

MDA-MB-468 = assay: MTT cell viability assay; details: Homo sapiens, MDA-MB-468
Experimental: as §3, §1, §2

MCF-10A = assay: MTT cell viability assay; details: normal mammary epithelial cells MCF-10A
Experimental: as §3, §1, §2

Compound: OCc1ccc(-c2nn(Cc3ccccc3)c3ccccc23)o1 [YC-1, 3-(5′-hydroxymethyl-2′-furyl)-1-benzyl indazole]
- phosphorylated activation of ERK (ERK): rapid phosphorylated activation
- H3K27me3 level (H3K27me3): kept unchanged
- effect on cell viability (Hs578T): no effect
- effect on cell viability (MDA-MB-231): slight inhibitory effect
- effect on cell viability (MDA-MB-453): no effect
- effect on cell viability (MDA-MB-157): no effect
- effect on cell viability (184A1): no effect
- IC50 (MDA-MB-468; 24 h-incubation): 620 ± 20 nM
- IC50 (MDA-MB-468; 48 h-incubation): 290 ± 20 nM
- effect on cell viability (MCF-10A): no effect
